These results are taken from ChEMBL document CHEMBL6121037, “Screening, Discovery, and Optimization of the Natural Antitubercular Chlorflavonin from a Marine-Derived Fungal Library” (J Nat Prod, 2025).

Calls of active or inactive are those of the source. The rule behind the calls is not given here.

In experiment [1] the test system is Staphylococcus aureus. As to the kind of experiment: Antibacterial activity against Staphylococcus aureus assessed as reduction in microbial growth at 25 ug/ml incubated for 24 hrs. The format is functional, organism-based. The conditions noted are these: dose 25.0 µg/ml.
Experiment [2] has as its system Mycobacterium marinum. Nature of the experiment: Antibacterial activity against Mycobacterium marinum assessed as reduction in microbial growth at 100 ug/ml. The format is functional, organism-based. The note with it: dose 100.0 µg/ml.
In experiment [3] the test system is A549. As to the kind of experiment: Cytotoxicity against human A549 cells at 20 uM by MTT assay. The format is functional, cell-based.
The test system of experiment [4] is Mycobacterium tuberculosis. As to the kind of experiment: Antitubercular activity against Mycobacterium tuberculosis H37Ra assessed as reduction in microbial growth. The format is functional.

As to `COc1cc(OC(=O)c2ccccc2)c2c(=O)c(OC)c(-c3cccc(Cl)c3OC(=O)c3ccccc3)oc2c1OC`, the outcome in experiment [1], in experiment [2] and in experiment [3] was inactive. In addition, the MIC90 in experiment [4] amounted to 1.7 µM.

As for `COc1cc(O)c2c(=O)c(OC)c(-c3cccc(Cl)c3OC(=O)c3cccc(N)c3)oc2c1OC`, the result in experiment [1], in experiment [2] and in experiment [3] was inactive. Besides, the MIC90 in experiment [4] was found to be 2 µM.

Regarding `COc1cc(OC(=O)c2cccs2)c2c(=O)c(OC)c(-c3cccc(Cl)c3OC(=O)c3cccs3)oc2c1OC`, the result in experiment [1], in experiment [2] and in experiment [3] was inactive.

In the case of `COc1cc(O)c2c(=O)c(OC)c(-c3cccc(Cl)c3OC(=O)/C=C/c3ccc(N(C)C)cc3)oc2c1OC`, the outcome in experiment [1], in experiment [2] and in experiment [3] was inactive.

Take `COc1cc(O)c2c(=O)c(OC)c(-c3cccc(Cl)c3OC(=O)c3cccc(Cl)c3)oc2c1OC`: the outcome in experiment [1], in experiment [2] and in experiment [3] was inactive. In addition, the MIC90 in experiment [4] was found to be 1.9 µM.

For `COc1cc(O)c2c(=O)c(OC)c(-c3cccc(Cl)c3OC(=O)c3cccc(Br)c3)oc2c1OC`, the result in experiment [1], in experiment [2] and in experiment [3] was inactive. The MIC90 in experiment [4] stood at 1.8 µM.

Take `COc1cc(OCc2ccc(C(C)(C)C)cc2)c2c(=O)c(OC)c(-c3cccc(Cl)c3OCc3ccc(C(C)(C)C)cc3)oc2c1OC`: the result in experiment [1], in experiment [2] and in experiment [3] was inactive.

Consider `COc1cc(O)c2c(=O)c(OC)c(-c3ccccc3O)oc2c1OC`, for which the result in experiment [1], in experiment [2] and in experiment [3] was inactive.

For the compound `COc1cc(O)c2c(=O)c(OC)c(-c3cccc(Cl)c3OC(=O)N(C)C)oc2c1OC`, the result in experiment [1], in experiment [2] and in experiment [3] was inactive.

Take `COc1cc(O)c2c(=O)c(OC)c(-c3cccc(Cl)c3OCc3cccc(C)c3)oc2c1OC`: the result in experiment [1], in experiment [2] and in experiment [3] was inactive.

`COc1cc(O)c2c(=O)c(OC)c(-c3cccc(Cl)c3OC(=O)/C=C/c3ccc(C)cc3)oc2c1OC`: the outcome in experiment [1], in experiment [2] and in experiment [3] was inactive. The MIC90 in experiment [4] amounted to 1.9 µM.

Turning to `COc1cc(/C=C/C(=O)Oc2c(Cl)cccc2-c2oc3c(OC)c(OC)cc(O)c3c(=O)c2OC)cc(OC)c1OC`, the result in experiment [1], in experiment [2] and in experiment [3] was inactive. For the same compound, the MIC90 in experiment [4] was determined as 1.7 µM.

Take `COc1cc(OCc2ccc(C(F)(F)F)cc2)c2c(=O)c(OC)c(-c3cccc(Cl)c3OCc3ccc(C(F)(F)F)cc3)oc2c1OC`: the outcome in experiment [1], in experiment [2] and in experiment [3] was inactive.

As to `COc1ccc(C(=O)Oc2c(Cl)cccc2-c2oc3c(OC)c(OC)cc(O)c3c(=O)c2OC)cc1`, the outcome in experiment [1], in experiment [2] and in experiment [3] was inactive. In addition, the MIC90 in experiment [4] turned out to be 2 µM.

On to `COc1cc(O)c2c(=O)c(OC)c(-c3cccc(Cl)c3OC(=O)/C=C/c3ccccc3)oc2c1OC`, for which the outcome in experiment [1], in experiment [2] and in experiment [3] was inactive. Further, the MIC90 in experiment [4] is 2 µM.

As for `COc1cc(O)c2c(=O)c(OC)c(-c3cccc(Cl)c3OC(=O)/C=C/c3ccsc3)oc2c1OC`, the result in experiment [1], in experiment [2] and in experiment [3] was inactive. Moreover, the MIC90 in experiment [4] was 1.9 µM.

Take `COc1cc(O)c2c(=O)c(OC)c(-c3cccc(Cl)c3OC(=O)/C=C/c3ccc(C(F)(F)F)cc3)oc2c1OC`: the outcome in experiment [1], in experiment [2] and in experiment [3] was inactive. The MIC90 in experiment [4] came to 1.7 µM.

Take `COc1cc(O)c2c(=O)c(OC)c(-c3cccc(Cl)c3OCc3ccc(F)cc3)oc2c1OC`: the result in experiment [1], in experiment [2] and in experiment [3] was inactive.

In the case of `COc1cc(O)c2c(=O)c(OC)c(-c3cccc(Cl)c3O)oc2c1OC`, the outcome in experiment [1], in experiment [2] and in experiment [3] was inactive. Moreover, the MIC90 in experiment [4] turned out to be 2.6 µM.

As for `NNC(=O)c1ccncc1` [ISONIAZID], the outcome in experiment [1] and in experiment [2] was inactive. For the same compound, in experiment [4], the MIC90 worked out at 0.3 µM.

For the compound `COc1cc(O)c2c(=O)c(OC)c(-c3cccc(Cl)c3OC(=O)/C=C/c3ccccc3Cl)oc2c1OC`, the outcome in experiment [1], in experiment [2] and in experiment [3] was inactive. Moreover, the MIC90 in experiment [4] came out at 0.7 µM.

Take `COc1cc(OC(=O)c2cccc(N(C)C)c2)c2c(=O)c(OC)c(-c3cccc(Cl)c3OC(=O)c3cccc(N(C)C)c3)oc2c1OC`: the outcome in experiment [1], in experiment [2] and in experiment [3] was inactive.

With `COc1cc(O)c2c(=O)c(OC)c(-c3cccc(Cl)c3OC(=O)c3cccnc3)oc2c1OC`, the outcome in experiment [1], in experiment [2] and in experiment [3] was inactive. Also, the MIC90 in experiment [4] amounted to 2.1 µM.

With `COc1cc(OC(=O)c2cccc(F)c2)c2c(=O)c(OC)c(-c3cccc(Cl)c3OC(=O)c3cccc(F)c3)oc2c1OC`, the outcome in experiment [1], in experiment [2] and in experiment [3] was inactive. Further, the MIC90 in experiment [4] was determined as 1.6 µM.

As for `COc1cc(O)c2c(=O)c(OC)c(-c3cccc(Br)c3O)oc2c1OC`, in experiment [4], the MIC90 amounted to 1.2 µM.

As for `COc1cc(OC(=O)/C=C/c2ccc(C(F)(F)F)cc2)c2c(=O)c(OC)c(-c3cccc(Cl)c3OC(=O)/C=C/c3ccc(C(F)(F)F)cc3)oc2c1OC`, the result in experiment [1], in experiment [2] and in experiment [3] was inactive.

In the case of `COc1cc(C(=O)Oc2c(Cl)cccc2-c2oc3c(OC)c(OC)cc(OC(=O)c4cc(OC)c(OC)c(OC)c4)c3c(=O)c2OC)cc(OC)c1OC`, the result in experiment [1], in experiment [2] and in experiment [3] was inactive.

Consider `COc1cc(O)c2c(=O)c(OC)c(-c3cccc(Cl)c3OCCc3cccc(F)c3)oc2c1OC`, for which the outcome in experiment [1], in experiment [2] and in experiment [3] was inactive.

Consider `COc1cc(O)c2c(=O)c(OC)c(-c3cccc(Cl)c3OC(=O)/C=C/c3cccnc3)oc2c1OC`, for which the result in experiment [1], in experiment [2] and in experiment [3] was inactive. Also, the MIC90 in experiment [4] came to 2 µM.

As for `COc1cc(O)c2c(=O)c(OC)c(-c3cccc(Cl)c3OCc3ccc(C(C)(C)C)cc3)oc2c1OC`, the result in experiment [1], in experiment [2] and in experiment [3] was inactive.

For `COc1cc(OCc2cccc(C)c2)c2c(=O)c(OC)c(-c3cccc(Cl)c3OCc3cccc(C)c3)oc2c1OC`, the outcome in experiment [1], in experiment [2] and in experiment [3] was inactive.

Regarding `COc1cc(OCc2cccc(F)c2)c2c(=O)c(OC)c(-c3cccc(Cl)c3OCc3cccc(F)c3)oc2c1OC`, the outcome in experiment [1], in experiment [2] and in experiment [3] was inactive.

As for `COc1cc(O)c2c(=O)c(OC)c(-c3cccc(Cl)c3OC(=O)c3ccccc3)oc2c1OC`, the result in experiment [1], in experiment [2] and in experiment [3] was inactive. Further, the MIC90 in experiment [4] worked out at 1 µM.

With `COc1cc(O)c2c(=O)c(OC)c(-c3cccc(Cl)c3OC(=O)c3cccc(C)c3)oc2c1OC`, the result in experiment [1], in experiment [2] and in experiment [3] was inactive.

Regarding `COc1cc(O)c2c(=O)c(OC)c(-c3cc(Br)cc(Cl)c3O)oc2c1OC`, the result in experiment [1], in experiment [2] and in experiment [3] was inactive.

For `COc1cc(C(=O)Oc2c(Cl)cccc2-c2oc3c(OC)c(OC)cc(O)c3c(=O)c2OC)cc(OC)c1OC`, the result in experiment [1], in experiment [2] and in experiment [3] was inactive. Moreover, in experiment [4], the MIC90 was 1.8 µM.

In the case of `COc1ccc(C(=O)Oc2c(Cl)cccc2-c2oc3c(OC)c(OC)cc(OC(=O)c4ccc(OC)cc4)c3c(=O)c2OC)cc1`, the outcome in experiment [1], in experiment [2] and in experiment [3] was inactive.

Consider `COc1c(Br)c(O)c2c(=O)c(OC)c(-c3cc(Br)cc(Cl)c3O)oc2c1OC`, for which the result in experiment [1], in experiment [2] and in experiment [3] was inactive.

In the case of `COc1cc(O)c2c(=O)c(OC)c(-c3cccc(Cl)c3OC(=O)/C=C/c3ccc(F)c(F)c3)oc2c1OC`, the result in experiment [1], in experiment [2] and in experiment [3] was inactive.

On to `COc1cc(OC(=O)c2cccc(Cl)c2)c2c(=O)c(OC)c(-c3cccc(Cl)c3OC(=O)c3cccc(Cl)c3)oc2c1OC`, for which the result in experiment [1], in experiment [2] and in experiment [3] was inactive.
